Measurements published in BindingDB's records for PubMed 1320692 (Ciba-Geigy, 1992).
“And” between values parts separate entries of the source, which are not always exact repeats. Identical values can stand only once.

Biological target: T1, Leukotriene B4 receptor 2 (Homo sapiens, UniProt Q9NPC1)
T1 sequence (Q9NPC1 whole entry): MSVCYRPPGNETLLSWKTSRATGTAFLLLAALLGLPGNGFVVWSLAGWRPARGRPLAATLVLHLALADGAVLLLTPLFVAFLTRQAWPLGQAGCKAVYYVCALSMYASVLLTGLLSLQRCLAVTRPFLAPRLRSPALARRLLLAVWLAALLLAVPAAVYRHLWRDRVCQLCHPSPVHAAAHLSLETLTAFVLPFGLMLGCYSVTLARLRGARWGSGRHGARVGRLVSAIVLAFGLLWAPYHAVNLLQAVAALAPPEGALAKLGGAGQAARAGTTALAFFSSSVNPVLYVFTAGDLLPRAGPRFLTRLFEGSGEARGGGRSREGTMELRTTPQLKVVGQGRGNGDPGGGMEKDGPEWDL

SMILES	Ki
COc1ccc(/C=C/CCCCOc2ccc(C(=O)c3cccc(C(=O)O)c3)cc2CCC(=O)O)cc1 [(Z)-3-{3-(2-Carboxy-ethyl)-4-[6-(4-methoxy-phenyl)-hex-5-enyloxy]-benzoyl}-benzoic acid]	35 nM and 15 nM
CCCCCCCCC(O)/C=C/c1cccc(C)n1 (centres undefined) [CGS 23114]	885 nM
COc1ccc(/C=C/CCCCOc2ccc(Oc3cccc(C(=O)O)c3)cc2CCC(=O)O)cc1 [CGS 23130]	24 nM and 8 nM
CCc1cc(C(C)=O)c(O)cc1OCCCCC(C)(C)c1nnn[nH]1 [CGS 23167]	293 nM and 364 nM
